Results taken from US20130004504A1, “METHOD OF MODULATING PHENYLALANINE HYDROXYLASE STRUCTURE AND FUNCTION” (Fox Chase Cancer Center, priority 2011, published 2013).
Read-outs that look alike come from different tables or passages of the source.

Columns and labels:
PAH = target: T1, PAH (Rattus norvegicus, UniProt P04176); conditions: cited from earlier work
T1 sequence (P04176 1-453): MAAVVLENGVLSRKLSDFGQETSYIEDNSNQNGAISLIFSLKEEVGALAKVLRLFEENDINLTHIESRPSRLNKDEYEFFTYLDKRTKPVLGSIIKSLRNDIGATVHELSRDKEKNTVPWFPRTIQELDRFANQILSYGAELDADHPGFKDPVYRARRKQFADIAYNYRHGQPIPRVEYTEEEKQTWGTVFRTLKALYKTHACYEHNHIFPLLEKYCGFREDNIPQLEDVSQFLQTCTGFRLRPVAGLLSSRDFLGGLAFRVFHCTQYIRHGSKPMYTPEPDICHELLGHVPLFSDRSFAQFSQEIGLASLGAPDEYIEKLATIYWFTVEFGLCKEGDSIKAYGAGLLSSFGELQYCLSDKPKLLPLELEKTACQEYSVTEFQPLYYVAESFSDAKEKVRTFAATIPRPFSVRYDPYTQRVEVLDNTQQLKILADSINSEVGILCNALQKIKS

rat PAH [1] = target: T2, rat PAH (Rattus norvegicus, UniProt P04176); assay: Native PAGE (PhastGel Western blot) of rat PAH quaternary structure equilibrium; conditions: ~1 mg/ml rat PAH, overnight, RT; 1 mM or 50 μM Phe, 75 μM BH4
T2 construct: expression vectors for full length untagged rat and human PAH from Prof; P. Fitzpatrick; made in house
T2 sequence (P04176 1-453): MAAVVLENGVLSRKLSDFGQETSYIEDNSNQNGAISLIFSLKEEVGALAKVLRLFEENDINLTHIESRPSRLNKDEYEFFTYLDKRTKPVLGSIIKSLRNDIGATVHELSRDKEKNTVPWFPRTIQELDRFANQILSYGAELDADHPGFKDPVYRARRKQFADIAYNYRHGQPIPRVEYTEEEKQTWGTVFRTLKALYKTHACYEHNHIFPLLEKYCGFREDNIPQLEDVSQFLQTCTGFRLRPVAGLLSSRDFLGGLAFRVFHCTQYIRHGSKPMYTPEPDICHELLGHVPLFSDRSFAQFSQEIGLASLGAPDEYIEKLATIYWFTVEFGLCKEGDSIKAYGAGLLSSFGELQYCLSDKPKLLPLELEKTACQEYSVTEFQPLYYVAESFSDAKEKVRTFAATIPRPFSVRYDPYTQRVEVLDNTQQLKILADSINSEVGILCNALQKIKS
Protocol: (§1) FIG. 7 represents preliminary results on purified mammalian PAH. […] Full length human PAH, cleaved from an N-terminal MBP fusion construct, runs at a dimer:tetramer ratio of ˜2:1 on a calibrated Superdex-200 column. With 1 mM Phe added to the running buffer, this ratio is shifted to ˜1:1. Buffers contain 125 mM KCl, which is known to stabilize the tetramer. FIG. 7B represents preliminary kinetic studies on purified rat PAH, monitoring tyrosine fluorescence, showing “order of addition” effects at 300 μM Phe and 75 μM BH4. […] FIG. 7E is a full length rat PAH ([…]), run on a 1 ml HiTrap Q column in 30 mM Tris-HCl with a KCl gradient (B=400 mM KCl). […] FIG. 7F is native PhastGel Western blot showing the effects of ligands on the rat PAH quaternary structure equilibrium (overnight, RT, ˜1 mg/ml). Lane 1—as purified; Lane 2—1 mM Phe; Lane 3—50 μM Phe; Lane 4—75 μM BH4; Lane 5, 50 μPhe+75 μM BH4.
(§2) With regard to the oligomeric equilibrium, rat PAH (in 15% glycerol) is found to be predominantly tetrameric by both native PAGE and SEC (FIGS. 7C & 7D). […] Coupled with the SEC results in FIG. 7D, this illustrates that IEC can be used to separate two tetramers, 4mer and 4mer*.

rat PAH [2] = target: T2, rat PAH; assay: Ion exchange chromatography of rat PAH (HiTrap Q, KCl gradient); conditions: 1 mM Phe in the elution buffer, 30 mM Tris-HCl, KCl gradient (FIG. 7E)
Protocol: as §1, §2

rat PAH [3] = target: T2, rat PAH; assay: SEC of purified rat PAH (Superdex 200); conditions: Phe in running buffer (FIG. 7D)
Protocol: as §1, §2

[4] = target: the molecule itself; assay: SEC on calibrated Superdex-200, buffer with 125 mM KCl and 1 mM Phe; self-association of PAH subunits
Protocol: as §1

[5] = target: the molecule itself; assay: SEC on calibrated Superdex-200, buffer with 125 mM KCl, no Phe; self-association of PAH subunits
Protocol: as §1

[6] = target: the molecule itself; assay: SEC on Superdex 200 (FIG. 7D); self-association

C[C@H](O)[C@H](O)[C@H]1CNc2nc(N)[nH]c(=O)c2N1 [BH4, tetrahydrobiopterin]
Kd (PAH; high-activity forms of PAH, read-out: Kd, binding to the high-activity forms of PAH): ~14 µM | Kd (PAH; low-activity form(s) of PAH, read-out: Kd, binding to the low-activity form(s) of PAH): ~0.1 µM

N[C@@H](Cc1ccccc1)C(=O)O [Phe, phenylalanine]
effect on distribution of PAH quaternary structure isoforms by native PAGE (rat PAH [1]): alters the distribution of PAH quaternary structure isoforms | effect on IEC elution profile (rat PAH [2]): dramatically alters the elution profile | effect on tetramer predominance by SEC (rat PAH [3]): not altered

B1: Full length human phenylalanine hydroxylase (PAH), cleaved from an N-terminal MBP fusion construct (enzyme, UniProt P00439 1-452, looked up)
chain: MSTAVLENPGLGRKLSDFGQETSYIEDNCNQNGAISLIFSLKEEVGALAKVLRLFEENDVNLTHIESRPSRLKKDEYEFFTHLDKRSLPALTNIIKILRHDIGATVHELSRDKKKDTVPWFPRTIQELDRFANQILSYGAELDADHPGFKDPVYRARRKQFADIAYNYRHGQPIPRVEYMEEEKKTWGTVFKTLKSLYKTHACYEYNHIFPLLEKYCGFHEDNIPQLEDVSQFLQTCTGFRLRPVAGLLSSRDFLGGLAFRVFHCTQYIRHGSKPMYTPEPDICHELLGHVPLFSDRSFAQFSQEIGLASLGAPDEYIEKLATIYWFTVEFGLCKQGDSIKAYGAGLLSSFGELQYCLSEKPKLLPLELEKTAIQNYTVTEFQPLYYVAESFNDAKEKVRNFAATIPRPFSVRYDPYTQRIEVLDNTQQLKILADSINSEIGILCSALQKIK
notes: mature; also called human PAH
dimer:tetramer ratio [4]: ~1 dimer:tetramer ratio (x:1) | dimer:tetramer ratio [5]: ~2 dimer:tetramer ratio (x:1)

B2: Full length untagged rat phenylalanine hydroxylase (PAH), purified by the Shiman affinity method (enzyme, UniProt P04176 2-453, looked up)
chain: AAVVLENGVLSRKLSDFGQETSYIEDNSNQNGAISLIFSLKEEVGALAKVLRLFEENDINLTHIESRPSRLNKDEYEFFTYLDKRTKPVLGSIIKSLRNDIGATVHELSRDKEKNTVPWFPRTIQELDRFANQILSYGAELDADHPGFKDPVYRARRKQFADIAYNYRHGQPIPRVEYTEEEKQTWGTVFRTLKALYKTHACYEHNHIFPLLEKYCGFREDNIPQLEDVSQFLQTCTGFRLRPVAGLLSSRDFLGGLAFRVFHCTQYIRHGSKPMYTPEPDICHELLGHVPLFSDRSFAQFSQEIGLASLGAPDEYIEKLATIYWFTVEFGLCKEGDSIKAYGAGLLSSFGELQYCLSDKPKLLPLELEKTACQEYSVTEFQPLYYVAESFSDAKEKVRTFAATIPRPFSVRYDPYTQRVEVLDNTQQLKILADSINSEVGILCNALQKIKS
notes: mature; Homo-oligomer found predominantly as tetramer, with some dimer; also called rat PAH
binding result [6]: binds
